Reference: US11203610B2, “2′3′ cyclic dinucleotides with phosphonate bond activating the sting adaptor protein” (INSTITUTE OF ORGANIC CHEMISTRY AND BIOCHEMISTRY ASCR, V.V.I., priority 2017, dated 2021)

Legend:
AQ STING (G230A-R293Q) = target: T1, AQ STING (G230A-R293Q) (Homo sapiens, UniProt Q86WV6, G230A/H232R/R293Q); test: Differential Scanning Fluorimetry with AQ STING; type: binding; details: thermal shift vs STING apoprotein; 150 μM CDN; 0.1 mg/ml truncated human AQ STING; SYPRO Orange; read-out: DSF ΔTm (° C.) AQ STING
T1 construct: truncated human WT STING or AQ STING (amino acid residues 140-343); 8xHis (N, cleaved yes); SUMO (N, cleaved yes); made in house; host or cells: E. coli Rosetta-gami B (DE3)
T1 sequence (Q86WV6 140-343 G230A/H232R/R293Q): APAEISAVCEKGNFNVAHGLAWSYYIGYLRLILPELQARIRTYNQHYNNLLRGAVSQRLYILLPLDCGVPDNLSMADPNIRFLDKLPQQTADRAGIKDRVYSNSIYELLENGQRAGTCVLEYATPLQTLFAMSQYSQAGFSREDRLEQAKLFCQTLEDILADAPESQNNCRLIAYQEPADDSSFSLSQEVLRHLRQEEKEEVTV

WT STING [1] = target: T2, WT STING (Homo sapiens, UniProt Q86WV6, H232R); test: Digitonin assay using 293T wtSTING-FL reporter cells; type: cell-based; details: 293T wtSTING-FL cells; 30 minutes in Digitonin buffer, then 5 hours; ISRE firefly luciferase reporter; 8-point dose-response curve; read-out: Digitonin assay EC50 (μmol · l^−1) WT STING
Target sequence in this assay (Q86WV6 whole entry H232R, the tested form may be a part): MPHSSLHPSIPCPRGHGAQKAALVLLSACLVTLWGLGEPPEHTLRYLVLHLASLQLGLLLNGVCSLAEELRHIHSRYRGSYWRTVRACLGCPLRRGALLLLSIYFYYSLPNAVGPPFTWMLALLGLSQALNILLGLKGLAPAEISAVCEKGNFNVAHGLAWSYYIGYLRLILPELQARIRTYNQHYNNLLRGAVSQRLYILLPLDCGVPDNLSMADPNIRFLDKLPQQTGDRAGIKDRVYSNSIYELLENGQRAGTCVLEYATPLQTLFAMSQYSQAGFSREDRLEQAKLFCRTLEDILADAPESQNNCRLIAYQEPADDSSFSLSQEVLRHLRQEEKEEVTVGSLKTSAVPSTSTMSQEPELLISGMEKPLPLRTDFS

WT STING [2] = target: T2, WT STING; test: Differential Scanning Fluorimetry with WT STING; type: binding; parameters: truncated human WT STING or AQ STING (amino acid residues 140-343); 8xHis (N, cleaved yes); SUMO (N, cleaved yes); made in house; host or cells: E. coli Rosetta-gami B (DE3); details: thermal shift vs STING apoprotein; 150 μM CDN; 0.1 mg/ml truncated human WT STING; SYPRO Orange; read-out: DSF ΔTm (° C.) WT STING
Target sequence in this assay (Q86WV6 140-343 H232R): as the sequence (Q86WV6 140-343 G230A/H232R/R293Q) above, with A91G, Q154R counted along it

Compound | ΔTm at 150 µM (AQ STING (G230A-R293Q)) | EC50 (WT STING [1]) | ΔTm at 150 µM (WT STING [2])
Nc1nc2c(nnn2[C@@H]2O[C@@H]3OCP(=O)(O)O[C@H]4[C@@H](O)[C@H](n5cnc6c(N)ncnc65)O[C@@H]4COP(=O)(O)O[C@@H]2[C@@H]3O)c(=O)[nH]1 [Compound 57, (1R,6R,8R,9R,10S,15R,17R,18S)-17-{5-amino-7-oxo-3H,6H,7H-[1,2,3]triazolo[4,5-d]pyrimidin-3-yl}-8-(6-amino-9H-purin-9-yl)-3,9,12,18-tetrahydroxy-2,4,7,11,14,16-hexaoxa-3λ^5,12λ^5-diphosphatricyclo[13.2.1.0^6,10]octadecane-3,12-dione] | 22.2 °C | 20 nM | 14.8 °C
NC(=O)c1ncn([C@@H]2O[C@@H]3COP(=O)(O)O[C@@H]4[C@H](O)[C@@H](OCP(=O)(O)O[C@H]3[C@H]2O)O[C@H]4n2cnc3c(=O)[nH]c(N)nc32)c1N [Compound 58, 5-amino-1-[(1R,6R,8R,9R,10S,15R,17R,18S)-17-(2-amino-6-oxo-6,9-dihydro-1H-purin-9-yl)-3,9,12,18-tetrahydroxy-3,12-dioxo-2,4,7,11,14,16-hexaoxa-3λ^5,12λ^5-diphosphatricyclo[13.2.1.0^6,10]octadecan-8-yl]-1H-imidazole-4-carboxamide] | 11.9 °C | 120 nM | 8.3 °C
Nc1ncnc2c1ncn2[C@@H]1O[C@@H]2OCP(=O)(O)O[C@@H]3[C@H](O)[C@@H](COP(=O)(O)O[C@H]2[C@H]1O)C[C@H]3n1cnc2c(=O)[nH]cnc21 [Compound 59, (1S,6R,8R,9R,10S,15R,17R,18R)-8-(6-amino-9H-purin-9-yl)-3,9,12,18-tetrahydroxy-17-(6-oxo-6,9-dihydro-1H-purin-9-yl)-2,5,7,11,13-pentaoxa-3λ^5,12λ^5-diphosphatricyclo[13.2.1.0^6,10]octadecane-3,12-dione] | 10 °C | 1100 nM | 1.8 °C
Nc1nc2c(ncn2[C@@H]2O[C@@H]3OCP(=O)(O)O[C@H]4[C@@H](O)[C@H](n5cnc6c(N)ncnc65)O[C@@H]4COP(=O)(O)O[C@@H]2[C@@H]3F)c(=O)[nH]1 [Compound 60, (1S,6R,8R,9R,10S,15R,17R,18S)-17-(2-amino-6-oxo-6,9-dihydro-1H-purin-9-yl)-8-(6-amino-9H-purin-9-yl)-18-fluoro-3,9,12-trihydroxy-2,4,7,11,14,16-hexaoxa-3λ^5,12λ^5-diphosphatricyclo[13.2.1.0^6,10]octadecane-3,12-dione] | 24 °C | 12 nM | 18.1 °C
Nc1nc2c(nnn2[C@@H]2O[C@@H]3OCP(=O)(O)O[C@@H]4[C@@H](OCP(=O)(O)O[C@@H]2[C@@H]3O)O[C@@H](n2cnc3c(N)ncnc32)[C@@H]4O)c(=O)[nH]1 [Compound 61, (1R,6R,8R,9R,10S,15R,17R,18S)-17-{5-amino-7-oxo-3H,6H,7H-[1,2,3]triazolo[4,5-d]pyrimidin-3-yl}-8-(6-amino-9H-purin-9-yl)-3,9,12,18-tetrahydroxy-2,5,7,11,14,16-hexaoxa-3λ^5,12λ^5-diphosphatricyclo[13.2.1.0^6,10]octadecane-3,12-dione] | 17.6 °C | 27 nM | 10 °C
Nc1nc2c(nnn2[C@@H]2O[C@@H]3OCP(=O)(O)O[C@H]4[C@H](O)[C@H](n5cnc6c(N)ncnc65)O[C@@H]4COP(=O)(O)O[C@@H]2[C@@H]3O)c(=O)[nH]1 [Compound 62, (1R,6R,8R,9S,10S,15R,17R,18S)-17-{5-amino-7-oxo-3H,6H,7H-[1,2,3]triazolo[4,5-d]pyrimidin-3-yl}-8-(6-amino-9H-purin-9-yl)-3,9,12,18-tetrahydroxy-2,4,7,11,14,16-hexaoxa-3λ^5,12λ^5-diphosphatricyclo[13.2.1.0^6,10]octadecane-3,12-dione] | 22.9 °C | 50 nM | 16 °C
Nc1nc2c(nnn2[C@@H]2O[C@@H]3OCP(=O)(O)OC4C(F)[C@H](n5cnc6c(N)ncnc65)O[C@@H]4COP(=O)(O)OC2C3O)c(=O)[nH]1 (stereo partly drawn) [Compound 63, (6R,8R,15R,17R)-17-{5-amino-7-oxo-3H,6H,7H-[1,2,3]triazolo[4,5-d]pyrimidin-3-yl}-8-(6-amino-9H-purin-9-yl)-9-fluoro-3,12,18-trihydroxy-2,4,7,11,14,16-hexaoxa-3λ^5,12λ^5-diphosphatricyclo[13.2.1.0^6,10]octadecane-3,12-dione] | 26.4 °C | 8 nM | 19.5 °C
